Format in all cases: in vivo
Test [1] relates to C. elegans (Bristol strain). Nature of the test: Evaluation of test compounds against C. elegans (motility, 96-well plate). The conditions noted are these: motility at 4 and 24 hours. Details: key: 9=complete kill in 4 hours; 8=complete kill in 24 hours; 7=markedly reduced motility in approximately 95% of worms in 24 hours; 0=normal motility, same as controls. As for the experimental part: Evaluation of Test Compounds Against C. elegans Cultures of C. elegans (Bristol strain from J. Lewis) are maintained on E. coli lawns on NG Agar Plates at 20° C. New cultures are established weekly. Nematodes for testing are washed from cultures using Na buffer. Compounds are dissolved in 80% acetone. The test material is micropipetted (25 μl) into a single well of a 96-well sterile tissue culture plate and the solvent allowed to evaporate. A freshly prepared volume (50 μl) of C. elegans in Na buffer is micropipetted into each treated well and several control wells per plate. Plates are incubated at 20° C. Observations for efficacy are made under a dissecting microscope at 4 and 24 hours post-immersion. Immediately prior to reading the plate, it is gently tapped to stimulate the movement of the worms. Activity is judged subjectively, but semi-quantitatively, based on the drug effects on motility of the adults and larvae.

Test [2] concerns M. incognita (Root Knot Nematode) larvae. The test can be described thus: Evaluation of test compounds against M. incognita larvae in microtiter plate wells (movement score). Further: key: A score of '9' indicates inactive worms with a straight, sticklike morphology; A score of '8' indicates inactive worms with a limp, curled or curved morphology; A score of '7' indicates dead/paralyzed worms after 72 hours. The conditions noted are these: larvae scored for movement after 20-24 hours. How it is done: Evaluation of Test Compounds Against M. incognita (Root Knot Nematode)
Newly emerged M. incognita larvae are suspended in S Medium (buffered salt solution) to a concentration of 50-65 worms per 50 μl. 50 μl of the worm suspension are pipetted into microtiter plate wells containing the test compounds. The plates are then covered with plactic plate sealers to reduce loss of volume by evaporation. After 20-24 hours of incubation, the larvae are scored for movement. Wells containing obviously dead/paralyzed larvae are scored as positive. […] A score of “7” indicates dead/paralyzed worms after […].

Test [3] relates to Aphis gossypii, cotton aphid (CA). The test can be described thus: Cotton aphid (CA) cotyledon dip test. Details: key: 0 = no effect; 1 = 10-25% kill; 2 = 26-35% kill; 3 = 36-45% kill; 4 = 46-55% kill; 5 = 56-65% kill; 6 = 66-75% kill; 7 = 76-85% kill; 8 = 86-99% kill; 9 = 100% kill. The conditions noted are these: mortality after 5 days. How it is done:
Test solutions are prepared by dissolving the test compound in a 35% acetone in water mixture to give a concentration of 10,000 ppm. Subsequent dilutions are made with water as needed. Aphis gossypii, Cotton Aphid (CA) Cotton plants at the cotyledon stage are selected and cut back to one plant per pot. A heavily infested leaf is taken from the main colony and placed on top of each cotyledon. The aphids are allowed to transfer to the host plant overnight. At the time of test treatment, the leaf used to transfer the aphids is removed and discarded. The cotyledons are dipped in the test solution and allowed to dry. After 5 days, mortality counts are made. [table]

Test [4] has as its system Diabrotica virgifera virgifera Leconte, 2nd instar western corn rootworm (WCR). Nature of the test: Western corn rootworm (WCR) soil test. Details: key: 0 = no effect; 1 = 10-25% kill; 2 = 26-35% kill; 3 = 36-45% kill; 4 = 46-55% kill; 5 = 56-65% kill; 6 = 66-75% kill; 7 = 76-85% kill; 8 = 86-99% kill; 9 = 100% kill. How it is done:
Test solutions are prepared by dissolving the test compound in a 35% acetone in water mixture to give a concentration of 10,000 ppm. Subsequent dilutions are made with water as needed. Diabrotica virgifera virgifera Leconte, 2nd Instar Western Corn Rootworm (WCR) One cc of fine talc is placed in a 30 mL wide-mouth screw-top glass jar. One mL of the appropriate acetone test solution is pipetted onto the talc so as to provide 1.25 mg of active ingredient per jar. The jars are set under a gentle air flow until the acetone is evaporated. The dried talc is loosened, 1 cc of millet seed is added to serve as food for the insects and 25 mL of moist soil is added to each jar. The jar is capped and the contents thoroughly mixed mechanically. Following this, ten 2nd instar rootworms are added to each jar and the jars are loosely capped to allow air exchange for the larvae. The treatments are held for 5 days when mortality counts are made. Missing larvae are presumed dead, since they decompose rapidly and cannot be found. The concentrations of active ingredient used in this test correspond approximately to 50 kg/ha. [table]

Test [5] has as its system Spodoptera eridania, 2nd instar larvae, southern armyworm (SAW). Nature of the test: Southern armyworm (SAW) leaf dip test. The arrangement: key: 0 = no effect; 1 = 10-25% kill; 2 = 26-35% kill; 3 = 36-45% kill; 4 = 46-55% kill; 5 = 56-65% kill; 6 = 66-75% kill; 7 = 76-85% kill; 8 = 86-99% kill; 9 = 100% kill. How it is done:
(§1) Test solutions are prepared by dissolving the test compound in a 35% acetone in water mixture to give a concentration of 10,000 ppm. Subsequent dilutions are made with water as needed.
Spodoptera eridania, 2nd Instar Larvae, Southern Armyworm (SAW)
A Sieva lima bean leaf expanded to 7-8 cm in length is dipped in the test solution with agitation for 3 seconds and allowed to dry in a hood. The leaf is then placed in a 100×10 mm petri dish containing a damp filter paper on the bottom and ten 2nd instar caterpillars. At 5 days, observations are made of mortality, reduced feeding, or any interference with normal molting.

In test [6] the test system is Tetranychus urticae (OP-resistant strain), 2-spotted spider mite (TSM). Nature of the test: 2-spotted spider mite (TSM) plant dip test. The arrangement: key: 0 = no effect; 1 = 10-25% kill; 2 = 26-35% kill; 3 = 36-45% kill; 4 = 46-55% kill; 5 = 56-65% kill; 6 = 66-75% kill; 7 = 76-85% kill; 8 = 86-99% kill; 9 = 100% kill. The conditions noted are these: mortality after 2 days. How it is done: as §1
Tetranychus urticae (OP-resistant strain), 2-spotted Spider Mite (TSM)
Sieva lima bean plants with primary leaves expanded to 7-8 cm are selected and cut back to one plant per pot. A small piece is cut from an infested leaf taken from the main colony and placed on each leaf of the test plants. This is done about 2 hours before treatment to allow the mites to move over to the test plant to lay eggs. The size of the cut, infested leaf is varied to obtain about 100 mites per leaf. At the time of test treatment, the piece of leaf used to transfer the mites is removed and discarded. The newly-infested plants are dipped in the test solution for 3 seconds with agitation and set in the hood to dry. After 2 days, one leaf is removed and mortality counts are made.

Consider `COC(=O)CSC(C[N+](=O)[O-])c1ccc(OC)cc1OC` (centres unmarked) [Example 79], for which the “Rating Against C. elegans (150 ppm)” value in test [1] is on record as 7. Besides, the “M. incognita (150 ppm) score” value in test [2] was 0.

`COc1ccc(C(C[N+](=O)[O-])SCC(=O)N2CCOCC2)c(OC)c1` (centres unmarked) [Example 80]: in test [1], the “Rating Against C. elegans (150 ppm)” value is given as 7. Besides, in test [2], the “M. incognita (150 ppm) score” value came to 0.

Consider `COc1ccc(C(C[N+](=O)[O-])SCc2ccccc2)c(OC)c1` (centres unmarked) [Example 81], for which the “Rating Against C. elegans (150 ppm)” value in test [1] was found to be 7. Further, in test [2], the “M. incognita (150 ppm) score” value came to 0.

As to `NC(CSC(C[N+](=O)[O-])c1ccccc1)C(=O)O` (centres unmarked) [Example 83], the “Rating Against C. elegans (150 ppm)” value in test [1] stood at 9. Moreover, in test [2], the “M. incognita (150 ppm) score” value turned out to be 9.

Consider `COc1ccc(C(C[N+](=O)[O-])SCC(N)C(=O)O)c(OC)c1` (centres unmarked) [Example 84], for which the “Rating Against C. elegans (150 ppm)” value in test [1] was 9. Further, the “M. incognita (150 ppm) score” value in test [2] is 0.

For the compound `O=[N+]([O-])CC(SCC(O)CO)c1ccccc1` (centres unmarked) [Example 85], the “Rating Against C. elegans (150 ppm)” value in test [1] is 7. For the same compound, the “M. incognita (150 ppm) score” value in test [2] came to 9.

Consider `COC(=O)CSC(C[N+](=O)[O-])c1ccc(OC)c(OC)c1` (centres unmarked) [Example 86], for which the “Rating Against C. elegans (150 ppm)” value in test [1] is 0. The “M. incognita (150 ppm) score” value in test [2] was 0.

In the case of `COc1cc(OC)cc(C(C[N+](=O)[O-])SCC(O)CO)c1` (centres unmarked) [Example 87], the “Rating Against C. elegans (150 ppm)” value in test [1] came to 0. The “M. incognita (150 ppm) score” value in test [2] stood at 0.

In the case of `COC(=O)CSC(c1ccccc1)C(C)[N+](=O)[O-]` (centres unmarked) [Example 150], in test [3], the “CA (300 ppm) rating” value was 0. The “WCR (50 ppm) rating” value in test [4] was 6 (6 = 66-75% kill). In addition, the “SAW (300 ppm) rating” value in test [5] stood at 0. Further, in test [6], the “TSM (300 ppm) rating” value stood at 0.

With `CCOC(=O)CSC(c1ccccc1)C(C)[N+](=O)[O-]` (centres unmarked) [Example 151], the “CA (300 ppm) rating” value in test [3] was 0. Further, the “WCR (50 ppm) rating” value in test [4] is reported as 0. Besides, the “SAW (300 ppm) rating” value in test [5] was determined as 0. In test [6], the “TSM (300 ppm) rating” value turned out to be 0.

For the compound `COC(=O)CSC(C[N+](=O)[O-])c1ccc(F)c(F)c1` (centres unmarked) [Example 152], the “CA (300 ppm) rating” value in test [3] was 0. The “WCR (50 ppm) rating” value in test [4] was 7 (7 = 76-85% kill). Also, the “SAW (300 ppm) rating” value in test [5] came out at 0. For the same compound, the “TSM (300 ppm) rating” value in test [6] came to 0.

Regarding `CCOC(=O)CSC(C[N+](=O)[O-])c1ccc(F)c(F)c1` (centres unmarked) [Example 153], the “CA (300 ppm) rating” value in test [3] is 0. In addition, the “WCR (50 ppm) rating” value in test [4] was 0. Moreover, the “SAW (300 ppm) rating” value in test [5] stood at 0. The “TSM (300 ppm) rating” value in test [6] was found to be 0.

Regarding `CCCOC(=O)CSC(C[N+](=O)[O-])c1ccc(F)c(F)c1` (centres unmarked) [Example 154], the “CA (300 ppm) rating” value in test [3] was found to be 0. Besides, in test [4], the “WCR (50 ppm) rating” value worked out at 0. Moreover, in test [5], the “SAW (300 ppm) rating” value was 0. The “TSM (300 ppm) rating” value in test [6] came out at 0.

Turning to `CC(C)OC(=O)CSC(C[N+](=O)[O-])c1ccc(F)c(F)c1` (centres unmarked) [Example 155], the “CA (300 ppm) rating” value in test [3] is given as 0. Also, in test [4], the “WCR (50 ppm) rating” value turned out to be 0. Moreover, in test [5], the “SAW (300 ppm) rating” value worked out at 0. Besides, the “TSM (300 ppm) rating” value in test [6] was 3 (3 = 36-45% kill).

On to `O=[N+]([O-])CC(SCc1ccco1)c1ccccc1` (centres unmarked) [Example 156], for which, in test [3], the “CA (300 ppm) rating” value was determined as 0. The “WCR (50 ppm) rating” value in test [4] was determined as 0. Also, in test [5], the “SAW (300 ppm) rating” value stood at 0. Besides, the “TSM (300 ppm) rating” value in test [6] stood at 0.

`O=[N+]([O-])CC(SCc1ccco1)c1ccc2c(c1)OCO2` (centres unmarked) [Example 159]: the “CA (300 ppm) rating” value in test [3] is 0. For the same compound, the “WCR (50 ppm) rating” value in test [4] stood at 0. Besides, the “SAW (300 ppm) rating” value in test [5] was 0. Further, the “TSM (300 ppm) rating” value in test [6] came out at 0.

`CC(C(SCC(=O)O)c1ccccc1)[N+](=O)[O-]` (centres unmarked) [Example 161]: the “CA (300 ppm) rating” value in test [3] came to 0. In addition, in test [4], the “WCR (50 ppm) rating” value was 4 (4 = 46-55% kill). Moreover, the “SAW (300 ppm) rating” value in test [5] stood at 0. Further, the “TSM (300 ppm) rating” value in test [6] is listed as 0.

For `CCCCOC(=O)CSC(c1ccccc1)C(C)[N+](=O)[O-]` (centres unmarked) [Example 162], the “CA (300 ppm) rating” value in test [3] turned out to be 0. In test [4], the “WCR (50 ppm) rating” value is listed as 6 (6 = 66-75% kill). Moreover, in test [5], the “SAW (300 ppm) rating” value is 0. Further, the “TSM (300 ppm) rating” value in test [6] was 0.

Source of the values: patent US6358883B1, “Pesticidal and parasiticidal use of 1-aryl-1-(substituted thio, sulfinyl and sulfonyl)-2-nitroethane compounds” (American Cyanamid Company, priority 1998, dated 2002).
